Like-named read-outs stand apart in the source and are kept apart here.
How the values were obtained:
Assay type in all cases: cell-based, human
HTT mRNA = experiment: RT-qPCR splicing assay, HTT canonical (CJ) and alternative (AJ) junction mRNA; conditions: Homo sapiens; for AC50: read-out: HTT AJ (AC50, increase in AJ mRNA)
In short: (§1)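 Cells: A673 (DMEM/10% FBS, plated 24 h before) or K562 (IMDM/10% FBS). Dosing: 11-pt 3-fold series, 10 uM top final, ≤0.25% DMSO, 24 h, 37 °C/5% CO2. Readout: RT-qPCR of CJ and AJ junctions, housekeeper-normalized, RQ = 2^(-ΔΔCt) vs DMSO.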

MYB mRNA = experiment: RT-qPCR splicing assay, MYB canonical (CJ) and alternative (AJ) junction mRNA; conditions: Homo sapiens; for AC50: read-out: MYB AJ (AC50, increase in AJ mRNA)
In short: as §1

SMN2 mRNA = experiment: RT-qPCR splicing assay panel, SMN2 canonical junction (CJ) mRNA; conditions: Homo sapiens, canonical junction (CJ) mRNA, RT-qPCR panel, Table 4A; read-out: SMN2, decrease in CJ mRNA levels, IC50
In short: as §1

Target C mRNA = experiment: RT-qPCR splicing assay panel, Target C canonical junction (CJ) mRNA; conditions: Homo sapiens, canonical junction (CJ) mRNA, RT-qPCR panel, Table 4A; read-out: Target C, decrease in CJ mRNA levels, IC50
In short: as §1

[1] = 24 h, Table 3A, A673 or K562 cells, 24 h treatment
[2] = 24 h, Table 3A, A673 or K562 cells, 24 h treatment, read-out: HTT CJ (IC50, decrease in CJ mRNA)
[3] = canonical junction (CJ) mRNA, RT-qPCR panel, Table 4A, read-out: HTT, decrease in CJ mRNA levels, IC50
[4] = 24 h, Table 3A, A673 or K562 cells, 24 h treatment, read-out: MYB CJ (IC50, decrease in CJ mRNA)
[5] = canonical junction (CJ) mRNA, RT-qPCR panel, Table 4A, read-out: MYB, decrease in CJ mRNA levels, IC50

IC50 (HTT mRNA; [2])	IC50 (HTT mRNA; [3])	IC50 (MYB mRNA; [4])	IC50 (MYB mRNA; [5])	IC50 (SMN2 mRNA)	IC50 (Target C mRNA)	Structure (SMILES)	AC50 (HTT mRNA; [1])	AC50 (MYB mRNA; [1])
< 100 nM	< 100 nM	100 to 1000 nM	100 to 1000 nM	< 100 nM	< 100 nM	CC1(C)CC(Oc2ccc(-c3cc(F)c(-c4cn[nH]c4)cc3O)nn2)CC(C)(C)N1 [Compound 361]	< 100 nM	< 100 nM
100 to 1000 nM	100 to 1000 nM	1000 to 10000 nM	1000 to 10000 nM	100 to 1000 nM	100 to 1000 nM	Oc1cc(-c2cnn3c2CCC3)ccc1-c1ccc(N2CCC(NC3CCC3)C2)nn1 (stereo not shown) [Compound 362]	1000 to 10000 nM	100 to 1000 nM
< 100 nM	< 100 nM	100 to 1000 nM	100 to 1000 nM	< 100 nM	100 to 1000 nM	COc1cc(-c2ccc(-c3ccc(N4CC[C@@](C)(NC5CCC5)C4)nn3)c(O)c2)ncn1 [Compound 366, 2-{6-[(3R)-3-(cyclobutylamino)-3-methylpyrrolidin-1-yl]pyridazin-3-yl}-5-(6-methoxypyrimidin-4-yl)phenol]	< 100 nM	100 to 1000 nM
> 10000 nM	> 10000 nM	> 10000 nM	> 10000 nM	1000 to 10000 nM	> 10000 nM	Cc1cnc(-c2cc(O)c(-c3ccc(N4CCC(NC5CCC5)C4)nn3)cc2F)s1 (stereo not shown) [Compound 367]	> 10000 nM	> 10000 nM
> 10000 nM	> 10000 nM	> 10000 nM	> 10000 nM	100 to 1000 nM	> 10000 nM	Oc1cc(-c2cc(OC(F)F)ncn2)ccc1-c1ccc(N2CCC(NCC3CC3)C2)nn1 (stereo not shown) [Compound 370]	> 10000 nM	> 10000 nM
1000 to 10000 nM	1000 to 10000 nM	> 10000 nM	> 10000 nM	1000 to 10000 nM	> 10000 nM	COc1cc(-c2ccc(-c3ccc(N4CCC(NCC5CC5)C4)nn3)c(O)c2)nc(C)n1 (stereo not shown) [Compound 371]	1000 to 10000 nM	> 10000 nM
< 100 nM	< 100 nM	< 100 nM	< 100 nM	< 100 nM	< 100 nM	Cc1ncc(-c2cc(O)c(-c3ccc(N4CC[C@H](N[C@H](C)C5CC5)C4)nn3)cc2F)s1 [Compound 372]	< 100 nM	< 100 nM
100 to 1000 nM	100 to 1000 nM	1000 to 10000 nM	1000 to 10000 nM	100 to 1000 nM	1000 to 10000 nM	Cc1nc(F)c(-c2cc(O)c(-c3ccc(N4CCC(NC5CCC5)C4)nn3)cc2F)s1 (stereo not shown) [Compound 378]	100 to 1000 nM	1000 to 10000 nM
< 100 nM	< 100 nM	< 100 nM	< 100 nM	< 100 nM	< 100 nM	Cc1ncc(-c2ccc(-c3ccc(N4CC[C@@H](NCC5CC5)C4)nn3)c(O)c2)s1 [Compound 379, 2-{6-[(3R)-3-[(cyclopropylmethyl)amino]pyrrolidin-1-yl]pyridazin-3-yl}-5-(2-methyl-1,3-thiazol-5-yl)phenol]	< 100 nM	< 100 nM
< 100 nM	< 100 nM	< 100 nM	< 100 nM	< 100 nM	< 100 nM	Cc1ncc(-c2ccc(-c3ccc(N4CC[C@H](NCC5CC5)C4)nn3)c(O)c2)s1 [Compound 380, 2-{6-[(3S)-3-[(cyclopropylmethyl)amino]pyrrolidin-1-yl]pyridazin-3-yl}-5-(2-methyl-1,3-thiazol-5-yl)phenol]	< 100 nM	< 100 nM

Further lines, the compound ahead of its results:

Structure (SMILES)	IC50 (HTT mRNA; [2])	IC50 (HTT mRNA; [3])	IC50 (MYB mRNA; [4])	IC50 (MYB mRNA; [5])	IC50 (SMN2 mRNA)	IC50 (Target C mRNA)	AC50 (HTT mRNA; [1])	AC50 (MYB mRNA; [1])
COc1cc(-c2ccc(-c3ccc(N4CC[C@@H](NC5CCC5)C4)nn3)c(O)c2)ncn1 [Compound 364, 2-{6-[(3R)-3-(cyclobutylamino)pyrrolidin-1-yl]pyridazin-3-yl}-5-(6-methoxypyrimidin-4-yl)phenol]	100 to 1000 nM	100 to 1000 nM	100 to 1000 nM	100 to 1000 nM	< 100 nM	100 to 1000 nM	100 to 1000 nM	1000 to 10000 nM
COc1cc(-c2ccc(-c3ccc(N4CC[C@](C)(NC5CCC5)C4)nn3)c(O)c2)ncn1 [Compound 365, 2-{6-[(3S)-3-(cyclobutylamino)-3-methylpyrrolidin-1-yl]pyridazin-3-yl}-5-(6-methoxypyrimidin-4-yl)phenol]	< 100 nM	< 100 nM	100 to 1000 nM	100 to 1000 nM	< 100 nM	< 100 nM	< 100 nM	100 to 1000 nM
COc1nccc(-c2ccc(-c3ccc(N4CCC(NCC5CC5)C4)nn3)c(O)c2)n1 (stereo not shown) [Compound 368]	100 to 1000 nM	100 to 1000 nM	1000 to 10000 nM	1000 to 10000 nM	100 to 1000 nM	1000 to 10000 nM	100 to 1000 nM	1000 to 10000 nM
Cc1cc(-c2ccc(-c3ccc(N4CCC(NCC5CC5)C4)nn3)c(O)c2)ncn1 (stereo not shown) [Compound 369]	1000 to 10000 nM	1000 to 10000 nM	1000 to 10000 nM	1000 to 10000 nM	100 to 1000 nM	1000 to 10000 nM	1000 to 10000 nM	1000 to 10000 nM
Cc1ncc(-c2cc(O)c(-c3ccc(N4CC[C@@H](N[C@@H](C)C5CC5)C4)nn3)cc2F)s1 [Compound 373]	< 100 nM	< 100 nM	< 100 nM	< 100 nM	< 100 nM	< 100 nM	< 100 nM	< 100 nM
COc1nc(-c2ccc(N3CCC(NC4CCC4)C3)nn2)ccc1-c1cnc(C)s1 (stereo not shown) [Compound 374]	100 to 1000 nM	100 to 1000 nM	100 to 1000 nM	100 to 1000 nM	< 100 nM	100 to 1000 nM	100 to 1000 nM	1000 to 10000 nM
COc1cc(-c2ccc(-c3ccc(N4CC[C@@](C)(NCC5CC5)C4)nn3)c(O)c2)ncn1 [Compound 375, 2-{6-[(3R)-3-[(cyclopropylmethyl)amino]-3-methylpyrrolidin-1-yl]pyridazin-3-yl}-5-(6-methoxypyrimidin-4-yl)phenol]	< 100 nM	< 100 nM	100 to 1000 nM	100 to 1000 nM	< 100 nM	100 to 1000 nM	100 to 1000 nM	1000 to 10000 nM
COc1cc(-c2ccc(-c3ccc(N4CC[C@](C)(NCC5CC5)C4)nn3)c(O)c2)ncn1 [Compound 376, 2-{6-[(3S)-3-[(cyclopropylmethyl)amino]-3-methylpyrrolidin-1-yl]pyridazin-3-yl}-5-(6-methoxypyrimidin-4-yl)phenol]	< 100 nM	< 100 nM	100 to 1000 nM	100 to 1000 nM	< 100 nM	100 to 1000 nM	< 100 nM	100 to 1000 nM
CC1(C)CC(Oc2ncc(-c3cc(F)c(-c4cn[nH]c4)cc3O)nn2)CC(C)(C)N1 [Compound 377]	100 to 1000 nM	100 to 1000 nM	1000 to 10000 nM	1000 to 10000 nM	100 to 1000 nM	100 to 1000 nM	100 to 1000 nM	1000 to 10000 nM
COc1cc(-c2ccc(-c3ccc(N4CC[C@H](NCC5CC5)C4)nn3)c(O)c2)ncn1 [Compound 381, 2-{6-[(3S)-3-[(cyclopropylmethyl)amino]pyrrolidin-1-yl]pyridazin-3-yl}-5-(6-methoxypyrimidin-4-yl)phenol]	< 100 nM	< 100 nM	100 to 1000 nM	100 to 1000 nM	< 100 nM	100 to 1000 nM	100 to 1000 nM	100 to 1000 nM
COc1cc(-c2ccc(-c3ccc(N4CC[C@@H](NCC5CC5)C4)nn3)c(O)c2)ncn1 [Compound 382, 2-{6-[(3R)-3-[(cyclopropylmethyl)amino]pyrrolidin-1-yl]pyridazin-3-yl}-5-(6-methoxypyrimidin-4-yl)phenol]	< 100 nM	< 100 nM	100 to 1000 nM	100 to 1000 nM	< 100 nM	100 to 1000 nM	100 to 1000 nM	100 to 1000 nM
COc1cc(-c2ccc(-c3ccc(N4CC[C@@H](NC5(C)CCC5)C4)nn3)c(O)c2)ncn1 [Compound 383, 5-(6-methoxypyrimidin-4-yl)-2-{6-[(3R)-3-[(1-methylcyclobutyl)amino]pyrrolidin-1-yl]pyridazin-3-yl}phenol]	< 100 nM	< 100 nM	100 to 1000 nM	100 to 1000 nM	< 100 nM	< 100 nM	< 100 nM	100 to 1000 nM
COc1cc(-c2ccc(-c3ccc(N4CC[C@H](NC5(C)CCC5)C4)nn3)c(O)c2)ncn1 [Compound 384, 5-(6-methoxypyrimidin-4-yl)-2-{6-[(3S)-3-[(1-methylcyclobutyl)amino]pyrrolidin-1-yl]pyridazin-3-yl}phenol]	< 100 nM	< 100 nM	100 to 1000 nM	100 to 1000 nM	< 100 nM	100 to 1000 nM	< 100 nM	100 to 1000 nM

— patent publication US20250333397A1 (REMIX THERAPEUTICS INC., priority 2021, published 2025)
